Laboratory results taken from patent publication US20240261297A1, “ANTI-CDK INHIBITORS FOR CANCER TREATMENT” (St. John's Cancer Institute, priority 2021, published 2024).
pIC50: −log10 of the molar value. Read-outs that look alike come from different tables or passages of the source.

Experiments:
CDK1/cyclin A = CDK1/cyclin A (Homo sapiens, UniProt P06493); test: Radioisotope-based protein kinase assay; type: biochemical; conditions: 10 μM ATP, 3-fold dilution from 10 μM
Procedure: (§1) A series of test compounds were selected for initial screening against CDK isoforms. Protein kinase assays were performed with gold standard radioisotope-based assay formats to measuring enzyme activity remaining in presence and absence of inhibitor.

CDK1/cyclin B = CDK1/cyclin B (Homo sapiens, UniProt P06493); test: Radioisotope-based protein kinase assay; type: biochemical; conditions: 10 μM ATP, 3-fold dilution from 10 μM
CDK1/cyclin B, sequence (P06493 whole entry): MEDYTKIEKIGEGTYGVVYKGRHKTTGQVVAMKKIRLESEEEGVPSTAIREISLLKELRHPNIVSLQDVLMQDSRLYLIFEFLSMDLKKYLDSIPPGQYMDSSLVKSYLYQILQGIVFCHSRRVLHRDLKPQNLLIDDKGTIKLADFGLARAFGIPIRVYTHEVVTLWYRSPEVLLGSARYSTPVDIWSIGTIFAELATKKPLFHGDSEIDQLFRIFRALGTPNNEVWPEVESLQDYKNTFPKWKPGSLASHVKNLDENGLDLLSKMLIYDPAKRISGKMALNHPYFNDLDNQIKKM
CDK1/cyclin B, sequence (P14635 whole entry partner): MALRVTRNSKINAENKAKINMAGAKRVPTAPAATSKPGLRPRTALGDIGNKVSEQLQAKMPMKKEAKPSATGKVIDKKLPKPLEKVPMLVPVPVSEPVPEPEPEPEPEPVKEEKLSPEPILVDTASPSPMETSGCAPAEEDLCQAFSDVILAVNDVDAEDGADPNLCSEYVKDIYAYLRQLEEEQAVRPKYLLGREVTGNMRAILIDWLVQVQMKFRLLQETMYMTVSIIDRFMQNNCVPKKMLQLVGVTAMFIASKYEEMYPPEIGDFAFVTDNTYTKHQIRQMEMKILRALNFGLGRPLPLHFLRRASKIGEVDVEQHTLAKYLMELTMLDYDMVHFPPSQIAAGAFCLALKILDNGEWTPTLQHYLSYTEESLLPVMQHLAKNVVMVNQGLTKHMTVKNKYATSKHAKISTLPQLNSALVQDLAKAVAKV
Procedure: as §1

CDK2/cyclin A = CDK2/cyclin A (Homo sapiens, UniProt P24941); test: Radioisotope-based protein kinase assay; type: biochemical; conditions: 10 μM ATP, 3-fold dilution from 10 μM
Procedure: as §1

CDK2/cyclin E [1] = molecular target: T1, CDK2/cyclin E (Homo sapiens, UniProt P24941); test: Radioisotope-based protein kinase assay; type: biochemical; conditions: 10 μM ATP, 3-fold dilution from 10 μM
Procedure: as §1

CDK4/cyclin D1 = CDK4/cyclin D1 (Homo sapiens, UniProt P11802); test: Radioisotope-based protein kinase assay; type: biochemical; conditions: 10 μM ATP, 3-fold dilution from 10 μM
CDK4/cyclin D1, sequence (P11802 whole entry): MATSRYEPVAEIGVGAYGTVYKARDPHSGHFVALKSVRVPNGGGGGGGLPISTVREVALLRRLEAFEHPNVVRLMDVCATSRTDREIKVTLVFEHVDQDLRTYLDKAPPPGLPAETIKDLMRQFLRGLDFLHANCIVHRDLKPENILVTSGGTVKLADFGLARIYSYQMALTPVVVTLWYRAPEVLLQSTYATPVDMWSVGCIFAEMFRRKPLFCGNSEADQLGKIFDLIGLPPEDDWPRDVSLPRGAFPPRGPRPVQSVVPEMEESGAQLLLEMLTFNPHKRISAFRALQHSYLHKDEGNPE
CDK4/cyclin D1, sequence (P24385 whole entry partner): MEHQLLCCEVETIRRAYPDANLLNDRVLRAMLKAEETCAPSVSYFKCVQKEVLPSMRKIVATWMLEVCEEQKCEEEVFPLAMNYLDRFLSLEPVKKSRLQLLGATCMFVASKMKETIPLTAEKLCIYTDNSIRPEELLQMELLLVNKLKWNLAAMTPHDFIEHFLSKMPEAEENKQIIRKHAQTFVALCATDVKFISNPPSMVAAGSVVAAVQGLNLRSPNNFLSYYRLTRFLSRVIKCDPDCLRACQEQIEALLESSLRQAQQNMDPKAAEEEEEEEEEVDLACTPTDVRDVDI
Procedure: as §1

CDK5/p25 = CDK5/p25 (Homo sapiens, UniProt Q00535); test: Radioisotope-based protein kinase assay; type: biochemical; conditions: Table 1; 10 μM ATP
CDK5/p25, sequence (Q00535 whole entry): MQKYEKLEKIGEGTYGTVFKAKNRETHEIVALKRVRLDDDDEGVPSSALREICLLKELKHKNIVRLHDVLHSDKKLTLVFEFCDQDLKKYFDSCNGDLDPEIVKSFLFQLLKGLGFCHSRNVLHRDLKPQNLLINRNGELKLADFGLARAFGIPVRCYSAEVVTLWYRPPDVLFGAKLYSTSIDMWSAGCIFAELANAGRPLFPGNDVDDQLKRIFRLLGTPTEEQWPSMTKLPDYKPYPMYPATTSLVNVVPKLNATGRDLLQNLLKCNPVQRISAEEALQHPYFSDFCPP
CDK5/p25, sequence (Q15078 99-307 partner limits assumed): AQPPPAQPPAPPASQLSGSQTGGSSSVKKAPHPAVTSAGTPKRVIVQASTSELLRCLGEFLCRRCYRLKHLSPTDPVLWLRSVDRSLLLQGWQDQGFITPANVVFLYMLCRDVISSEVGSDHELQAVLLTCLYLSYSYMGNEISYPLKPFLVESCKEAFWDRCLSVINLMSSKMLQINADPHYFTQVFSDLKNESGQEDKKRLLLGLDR
Procedure: as §1

CDK6/cyclin D1 = CDK6/cyclin D1 (Homo sapiens, UniProt Q00534); test: Radioisotope-based protein kinase assay; type: biochemical; conditions: 10 μM ATP, 3-fold dilution from 10 μM
CDK6/cyclin D1, sequence (Q00534 whole entry): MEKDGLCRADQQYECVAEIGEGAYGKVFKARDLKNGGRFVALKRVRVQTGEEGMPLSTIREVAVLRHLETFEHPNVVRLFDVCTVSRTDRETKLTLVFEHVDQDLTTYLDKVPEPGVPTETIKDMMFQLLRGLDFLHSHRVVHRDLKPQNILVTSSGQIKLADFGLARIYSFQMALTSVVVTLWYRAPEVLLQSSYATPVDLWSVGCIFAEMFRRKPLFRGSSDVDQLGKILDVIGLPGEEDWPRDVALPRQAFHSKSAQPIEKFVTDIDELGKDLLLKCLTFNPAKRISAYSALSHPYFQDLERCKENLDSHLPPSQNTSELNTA
CDK6/cyclin D1, sequence (P24385 whole entry partner): as the sequence (P24385 whole entry partner) above
Procedure: as §1

CDK7/cyclin H [2] = molecular target: T2, CDK7/cyclin H (Homo sapiens, UniProt P50613); test: Radioisotope-based protein kinase assay; type: biochemical; conditions: 10 μM ATP, 3-fold dilution from 10 μM
T2 sequence (P50613 whole entry): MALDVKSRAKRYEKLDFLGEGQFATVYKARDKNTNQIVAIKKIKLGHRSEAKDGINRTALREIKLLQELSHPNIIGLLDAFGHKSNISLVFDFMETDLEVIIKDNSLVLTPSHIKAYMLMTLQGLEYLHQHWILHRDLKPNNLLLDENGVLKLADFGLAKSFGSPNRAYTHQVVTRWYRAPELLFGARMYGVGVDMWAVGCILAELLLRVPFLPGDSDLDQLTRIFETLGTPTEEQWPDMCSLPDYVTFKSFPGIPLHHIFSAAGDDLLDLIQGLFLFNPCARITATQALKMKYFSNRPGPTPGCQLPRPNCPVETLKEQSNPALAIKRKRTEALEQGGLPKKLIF
T2 sequence (P51946 whole entry partner): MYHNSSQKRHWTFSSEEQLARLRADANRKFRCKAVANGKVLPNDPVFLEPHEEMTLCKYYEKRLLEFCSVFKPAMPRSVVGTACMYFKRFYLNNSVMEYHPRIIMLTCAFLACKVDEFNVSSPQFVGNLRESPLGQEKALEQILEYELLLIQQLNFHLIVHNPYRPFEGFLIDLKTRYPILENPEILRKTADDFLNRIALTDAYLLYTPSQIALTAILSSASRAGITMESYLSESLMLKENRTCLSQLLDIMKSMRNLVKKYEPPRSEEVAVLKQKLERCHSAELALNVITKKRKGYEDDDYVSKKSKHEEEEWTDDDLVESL
T2 sequence (P51948 whole entry partner): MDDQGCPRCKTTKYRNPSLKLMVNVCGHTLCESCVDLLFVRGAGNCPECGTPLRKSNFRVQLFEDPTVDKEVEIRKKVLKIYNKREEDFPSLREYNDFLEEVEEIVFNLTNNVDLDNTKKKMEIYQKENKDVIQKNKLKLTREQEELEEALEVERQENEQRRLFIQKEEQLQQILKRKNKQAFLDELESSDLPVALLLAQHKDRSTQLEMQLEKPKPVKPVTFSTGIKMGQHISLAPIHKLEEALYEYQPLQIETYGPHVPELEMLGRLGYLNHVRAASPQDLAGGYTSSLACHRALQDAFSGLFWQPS
Procedure: as §1

CDK9/cyclin T1 [3] = molecular target: T3, CDK9/cyclin T1 (Homo sapiens, UniProt P50750); test: Radioisotope-based protein kinase assay; type: biochemical; conditions: 10 μM ATP, 3-fold dilution from 10 μM
T3 sequence (P50750 whole entry): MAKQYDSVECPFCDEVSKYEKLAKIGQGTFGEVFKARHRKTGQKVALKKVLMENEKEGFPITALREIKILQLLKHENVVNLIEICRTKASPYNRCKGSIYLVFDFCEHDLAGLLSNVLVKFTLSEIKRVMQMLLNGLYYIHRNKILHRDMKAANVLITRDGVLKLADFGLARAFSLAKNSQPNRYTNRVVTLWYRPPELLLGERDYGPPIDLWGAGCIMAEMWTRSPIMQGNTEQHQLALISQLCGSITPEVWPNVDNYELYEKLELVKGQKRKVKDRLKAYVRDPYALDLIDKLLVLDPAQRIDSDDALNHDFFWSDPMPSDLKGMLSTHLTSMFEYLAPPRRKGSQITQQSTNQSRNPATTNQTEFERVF
T3 sequence (O60563 whole entry partner): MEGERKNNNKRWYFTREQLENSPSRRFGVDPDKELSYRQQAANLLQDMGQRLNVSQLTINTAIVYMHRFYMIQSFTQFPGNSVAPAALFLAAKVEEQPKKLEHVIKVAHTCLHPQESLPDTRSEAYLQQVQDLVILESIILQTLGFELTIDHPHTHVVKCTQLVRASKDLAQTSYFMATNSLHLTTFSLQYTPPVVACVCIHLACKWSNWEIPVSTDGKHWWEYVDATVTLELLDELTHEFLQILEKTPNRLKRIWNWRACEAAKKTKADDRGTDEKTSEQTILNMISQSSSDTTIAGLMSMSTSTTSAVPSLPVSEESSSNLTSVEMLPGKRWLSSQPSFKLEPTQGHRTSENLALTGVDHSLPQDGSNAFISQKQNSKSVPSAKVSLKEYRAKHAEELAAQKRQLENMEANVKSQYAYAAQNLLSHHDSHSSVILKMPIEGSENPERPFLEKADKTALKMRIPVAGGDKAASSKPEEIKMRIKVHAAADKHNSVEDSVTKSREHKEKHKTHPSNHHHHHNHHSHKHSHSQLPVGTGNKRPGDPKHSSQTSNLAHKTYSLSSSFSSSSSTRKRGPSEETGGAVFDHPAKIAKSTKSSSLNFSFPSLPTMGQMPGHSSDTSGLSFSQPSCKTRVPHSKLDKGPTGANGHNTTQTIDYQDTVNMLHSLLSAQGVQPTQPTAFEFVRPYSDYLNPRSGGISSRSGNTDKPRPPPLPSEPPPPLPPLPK
Procedure: as §1

CKD9/Cyclin H = CKD9/Cyclin H (Homo sapiens, UniProt P50750); test: Biochemical profile against CDKs and binding partners (Table 3)
CKD9/Cyclin H, sequence (P50750 whole entry): as the sequence (P50750 whole entry) above
Procedure: as §1

CDK1/Cyclin B1 = molecular target: T4, CDK1/Cyclin B1 (Homo sapiens, UniProt P06493); test: NanoBRET target engagement intracellular kinase assay in HEK293 cells; type: cell-based; conditions: transfected HEK293 cells; 10-dose, 3-fold from 10 μM, duplicate
T4 construct: expressed in transfected cells; host or cells: HEK293
T4 sequence (P06493 whole entry): as the sequence (P06493 whole entry) above
T4 sequence (P14635 whole entry partner): as the sequence (P14635 whole entry partner) above
Procedure: (§2) Compound 1-3 efficacy was assessed in several in vitro assays. A nanoBrET assay was used to measure intracellular kinase activity of I-3 with CDK2, CDK1, CDK7 and CDK9. Briefly, HEK293 cells were transfected with CDK2, CDK1, CDK7 and CDK9. The transfected cells were treated in duplicate with test compound I-3 (starting at 10 μM, 10-dose with 3-fold dilution) and target engagement was measured by NanoBRET assay (FIG. 2A and Table 4). Cellular thermal shift assay (CETSA) was also performed to evaluate drug target interaction in the cells. The CETSA method is built upon two concepts: cellular thermal shift and isothermal dose-response. The cellular thermal shift assay is based on the established fact that proteins that are complexed to a ligand become more resistant to heat induced unfolding. Isothermal dose response is used to determine a compound's potency in binding the target by measuring the thermal stability of the target treated with various concentrations of compound at a fixed temperature. Briefly, cell lysate was treated with I-3 (starting at 300 nM, 10-dose with 3-fold dilution) and incubated for 1 hour and cell lysates were then subjected to predetermined thermal aggregation temperature (58° C.) for another 20 min. Western blot was performed to determine the levels of target protein bound to I-3 (FIG. 2B).

CDK2/Cyclin E1 = molecular target: T5, CDK2/Cyclin E1 (Homo sapiens, UniProt P24941); test: as above; type: cell-based; conditions: transfected HEK293 cells; 10-dose, 3-fold from 10 μM, duplicate
T5 construct: expressed in transfected cells; host or cells: HEK293
Procedure: as §2

CDK7/cyclin H [4] = molecular target: T2, CDK7/cyclin H; test: as above; type: cell-based; conditions: transfected HEK293 cells; 10-dose, 3-fold from 10 μM, duplicate
Procedure: as §2

CDK9/cyclin T1 [5] = molecular target: T3, CDK9/cyclin T1; test: as above; type: cell-based; conditions: transfected HEK293 cells; 10-dose, 3-fold from 10 μM, duplicate
Procedure: as §2

BT-549 = test: Cell viability in breast cancer cell lines; type: cell-based; conditions: Homo sapiens; BT-549 (Mesenchymal), 72 hours; read-out: CTG and Alamar Blue Assay IC50
Excerpt: (§3) Tables 5 and 6 show assessment of in vitro efficacy of I-3 in a panel of breast cancer cell lines.

MDA-MB-231 = test: Cell viability in breast cancer cell lines; type: cell-based; conditions: Homo sapiens; MDA-MB-231 (Mesenchymal-like), 72 hours; read-out: CTG and Alamar Blue Assay IC50
Excerpt: as §3

MDA-MB-468 = test: Cell viability in breast cancer cell lines; type: cell-based; conditions: Homo sapiens
Excerpt: as §3

T47D = test: Cell viability in breast cancer cell lines; type: cell-based; conditions: Homo sapiens; T47D (Ductal carcinoma), 72 hours; read-out: CTG and Alamar Blue Assay IC50
Excerpt: as §3

[6] = test system: caspase 3/7 in MDA-MB-468 cells; test: Caspase Glo 3/7 activity assay in MDA-MB-468 cells; type: cell-based; conditions: 24 hours
Procedure: Further anti-proliferative effect of 1-3 was evaluated in the TNBC cell line MDA-MB-468 based on biomarker (CDK2) inhibition. […] The mechanistic cell cycle block is aligned with biomarker. In addition, Caspase Glo 3/7 activation was tested to confirm the sub-G1 (apoptotic) arrest in cell cycle.

CDK2/cyclin E [7] = molecular target: T1, CDK2/cyclin E; test: Cellular thermal shift assay (CETSA), isothermal dose response; type: binding; set-up: endogenous in cells; conditions: cell lysate, from 300 nM, 1 hour, 58° C. 20 min, Western blot
Procedure: as §2

For `Nc1nccc(-c2c[nH]c3nccc(Oc4cccc(F)c4)c23)n1` [I-3, 4-(4-(3-fluorophenoxy)-1H-pyrrolo[2,3-b]pyridin-3-yl)pyrimidin-2-amine], the pIC50 (CDK1/cyclin A) was 8.22, the pIC50 (CDK1/cyclin B) was 8.10 and the pIC50 (CDK2/cyclin A) was 8.40. It also gave a pIC50 (CDK2/cyclin E [1]) of 8.40, a pIC50 (CDK4/cyclin D1) of 6.38 and a pIC50 (CDK5/p25) of 8.10. For the same compound, the pIC50 (CDK6/cyclin D1) was 6.55, the pIC50 (CDK7/cyclin H [2]) was 7.74 and the pIC50 (CDK9/cyclin T1 [3]) was 8.15. It also gave a pIC50 (CKD9/Cyclin H) of 8.15, a pIC50 (CDK1/Cyclin B1) of 5.97 and a pIC50 (CDK2/Cyclin E1) of 7.66. For the same compound, the pIC50 (CDK7/cyclin H [4]) was 6.39, the pIC50 (CDK9/cyclin T1 [5]) was 6.15 and the pIC50 (BT-549) was 6.12. For the same compound, the pIC50 (MDA-MB-231) was 6.25, the pIC50 (MDA-MB-468; MDA-MB-468 (Basal-like 1), 72 hours, read-out: CTG and Alamar Blue Assay IC50) was 6.56 and the pIC50 (MDA-MB-468; MDA-MB-468, 72 hours, Table 6, read-out: Cell viability by CellTiter Glo IC50) was 6.56. For the same compound, the pIC50 (T47D) was 4.26, the “Caspase 3/7 activation” value [6] was “clear activation of caspase 3/7” and the pIC50 ([6]; Homo sapiens) was 6.19. For the same compound, the “Binding of CDK2/Cyclin E in drug target engagement methods (CETSA, NanoBRET)” value (CDK2/cyclin E [7]) was “potent binding (nanomolar range)”.
